Laboratory results taken from patent US12145944B2, “Imidazopyrimidines as EED inhibitors and the use thereof” (THE REGENTS OF THE UNIVERSITY OF MICHIGAN, priority 2019, dated 2024).
Where two headings read alike, the source gives them in different places.

Assays:
[1] = target: T1, EED (1-441)-His protein (Homo sapiens, UniProt O75530); assay: EED-H3K27Me3 peptide competition binding assay by AlphaScreen; settings: EED Alpha screen binding assay, read-out: Alpha screen
T1 construct: 20 nM EED (1-441)-His protein
Protocol: “N/A” stands for “not assessed”.
EED-H3K27Me3 peptide competition binding assay by AlphaScreen (α-screen)
2.5 μl of solutions containing 20 nM biotin-H3K27Me3 (19-33) peptide in the buffer (25 mM HEPES, pH 8, 0.02% Tween-20, 0.5% BSA) were added to the wells and then incubated with compound for 30 min. […] Then 10 μl of the detection beads mix was added to the plate and incubated in the dark at RT for 1 h. The final concentration of donor and acceptor beads was 10 μg/ml for each. […] The data were then fit to a dose response equation to get the IC50 values.

[2] = tested on: Pfeiffer cell line; assay: Anti-proliferative activity, Pfeiffer cell line, 7 day treatment; type: cell-based; settings: Homo sapiens, 168 h; anti-proliferative IC50 class, Pfeiffer cell line, 7 day treatment; read-out: Pfeiffer Cell line
Method in brief: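 Cells seeded at 2 000-3 000 per well were treated with serially diluted compounds for 7 days at 37° C, 5% CO2. Growth was measured by WST-8 assay read at 450 nm after 1-4 h reagent incubation. Readings were normalized to DMSO-treated cells and IC50 values derived by nonlinear regression.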

[3] = tested on: KARPAS422 human B cell lymphoma cell; assay: Cell proliferation, KARPAS422, 7 day treatment (WST-8); type: cell-based; settings: Homo sapiens, KARPAS-422, 168 h, 7 day treatment, read-out: Karpas Cell line
Method in brief: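 Read-out was WST-8 absorbance at 450 nm after 1-4 h with reagent, taken after 7-day compound treatment (serial dilutions, 37 °C, 5% CO2) of 2 000-3 000 KARPAS422 cells per well. IC50 fitted by nonlinear regression on DMSO-normalized values.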

[4] = anti-proliferative IC50 class, Karpas 422 cell line
[5] = anti-proliferative IC50, Karpas 422 cell line

T1 sequence (O75530 whole entry): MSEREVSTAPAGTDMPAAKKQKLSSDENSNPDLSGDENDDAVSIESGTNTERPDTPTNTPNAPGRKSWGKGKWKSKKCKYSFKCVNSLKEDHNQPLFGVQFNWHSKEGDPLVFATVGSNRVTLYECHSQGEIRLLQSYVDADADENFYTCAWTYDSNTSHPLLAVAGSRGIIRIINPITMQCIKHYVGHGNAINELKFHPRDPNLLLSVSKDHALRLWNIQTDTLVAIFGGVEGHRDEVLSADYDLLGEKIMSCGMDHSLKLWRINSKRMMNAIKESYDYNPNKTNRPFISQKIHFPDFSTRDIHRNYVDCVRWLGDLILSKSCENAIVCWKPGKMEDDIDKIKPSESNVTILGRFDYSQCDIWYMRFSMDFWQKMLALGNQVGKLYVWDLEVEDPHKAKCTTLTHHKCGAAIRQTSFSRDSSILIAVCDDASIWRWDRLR

IC50 ([1]; IC50 class)	IC50 [2]	IC50 [3, 4]	IC50 [1]	IC50 [3, 5]	Compound
			1.15 nM	> 100 nM	CCP(=O)(CC)c1ncn2c(NCc3c(F)ccc4c3CCO4)ncc(-c3ccc(C(F)(F)F)nc3)c12 [compound 120, diethyl(5-(((5-fluoro-2,3-dihydrobenzofuran-4-yl)methyl)amino)-8-(6-(trifluoromethyl)pyridin-3-yl)imidazo[1,5-c]pyrimidin-1-yl)phosphine oxide]
			0.31 nM	> 100 nM	CCP(=O)(CC)c1ncn2c(NCc3c(F)ccc4c3CCO4)ncc(-c3ccc(C(F)(F)F)cc3)c12 [compound 121, diethyl(5-(((5-fluoro-2,3-dihydrobenzofuran-4-yl)methyl)amino)-8-(4-(trifluoromethyl)phenyl)imidazo[1,5-c]pyrimidin-1-yl)phosphine oxide]
			0.31 nM	> 100 nM	CCP(=O)(CC)c1ncn2c(NCc3c(F)ccc4c3CCO4)ncc(-c3ccc(S(C)(=O)=O)cc3)c12 [compound 122, diethyl(5-(((5-fluoro-2,3-dihydrobenzofuran-4-yl)methyl)amino)-8-(4-(methylsulfonyl)phenyl)imidazo[1,5-c]pyrimidin-1-yl)phosphine oxide]
			4.74 nM	22.9 nM	Cc1ccc(-c2cnc(NCc3c(F)ccc4c3CCO4)n3cnc(P(C)(C)=O)c23)c(C)n1 [compound 123, (8-(2,6-dimethylpyridin-3-yl)-5-(((5-fluoro-2,3-dihydrobenzofuran-4-yl)methyl)amino)imidazo[1,5-c]pyrimidin-1-yl)dimethylphosphine oxide]
			8.04 nM	72 nM	CCP(=O)(CC)c1ncn2c(NCc3c(F)ccc4c3CCO4)ncc(-c3ccc(F)cc3)c12 [compound 124, diethyl(5-(((5-fluoro-2,3-dihydrobenzofuran-4-yl)methyl)amino)-8-(4-fluorophenyl)imidazo[1,5-c]pyrimidin-1-yl)phosphine oxide]
			27.6 nM	91.7 nM	CCP(=O)(CC)c1ncn2c(NCc3c(F)ccc4c3CCO4)ncc(-c3ccc(C)nc3C)c12 [compound 125, (8-(2,6-dimethylpyridin-3-yl)-5-(((5-fluoro-2,3-dihydrobenzofuran-4-yl)methyl)amino)imidazo[1,5-c]pyrimidin-1-yl)diethylphosphine oxide]

Second part, the compound before the results:

Compound	IC50 ([1]; IC50 class)	IC50 [2]	IC50 [3, 4]	IC50 [1]	IC50 [3, 5]
Cc1ccc2c(n1)CN(CC(F)(F)F)C(=O)c1ncn3c(NCc4c(F)ccc5c4CCO5)ncc-2c13 [E 3, 12-(((5-fluoro-2,3-dihydrobenzofuran-4-yl)methyl)amino)-7-methyl-4-(2,2,2-trifluoroethyl)-4,5-dihydro-3H-2,4,6,11,12a-pentaazabenzo[4,5]cycloocta[1,2,3-cd]inden-3-one]	< 10 nM	< 10 nM	< 10 nM		
Cc1ccc2c(n1)CN(CC(C)(F)F)C(=O)c1ncn3c(NCc4c(F)ccc5c4CCO5)ncc-2c13 [E 7, 4-(2,2-difluoropropyl)-12-(((5-fluoro-2,3-dihydrobenzofuran-4-yl)methyl)amino)-7-methyl-4,5-dihydro-3H-2,4,6,11,12a-pentaazabenzo[4,5]cycloocta[1,2,3-cd]inden-3-one]	< 10 nM	< 10 nM	< 10 nM		
[2H]C([2H])([2H])c1ccc2c(n1)CN(CC(F)(F)F)C(=O)c1ncn3c(NCc4c(F)ccc5c4CCO5)ncc-2c13 [E 19, 12-(((5-fluoro-2,3-dihydrobenzofuran-4-yl)methyl)amino)-7-(methyl-d3)-4-(2,2,2-trifluoroethyl)-4,5-dihydro-3H-2,4,6,11,12a-pentaazabenzo[4,5]cycloocta[1,2,3-cd]inden-3-one]	< 10 nM	< 10 nM	< 10 nM		
CP(C)(=O)c1ncn2c(NCc3c(F)ccc4c3CCO4)ncc(-c3ccc(C(F)(F)F)nc3)c12 [compound 119, (5-(((5-fluoro-2,3-dihydrobenzofuran-4-yl)methyl)amino)-8-(6-(trifluoromethyl)pyridin-3-yl)imidazo[1,5-c]pyrimidin-1-yl)dimethylphosphine oxide]				0.2 nM	27.9 nM
